For test [1], the target named is Phospholipase A2, major isoenzyme, pancreatic (Sus scrofa) (UniProt P00592). The test is described as follows: Inhibition of secretory PLA2 activity in porcine pancreas using [3H]-oleate labelled membranes at a concentration of 10 uM.
Test [2] can be described thus: Inhibition of secretory PLA2 activity in bee venom enzyme using [3H]oleate labelled membranes at a concentration of 10 uM.
The nature of test [3]: Inhibition of secretory PLA2 activity in Naja naja venom enzyme using [3H]oleate labelled membranes at a concentration of 10 uM.

Phospholipase A2, major isoenzyme, pancreatic (Sus scrofa), sequence (P00592 whole entry, looked up): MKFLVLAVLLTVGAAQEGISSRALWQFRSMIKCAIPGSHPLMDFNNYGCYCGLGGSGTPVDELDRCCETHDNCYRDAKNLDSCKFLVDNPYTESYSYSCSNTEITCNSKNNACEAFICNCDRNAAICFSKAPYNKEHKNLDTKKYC

As usually defined, the IC50 is the concentration needed to halve the response being measured. Lower therefore signals greater potency in that assay. For the compound `CCCCCCCCCCCCCCC(CO)NCC` (stereo not given) [2-Ethylamino-hexadecan-1-ol], the figures for the IC50 in test [1] and in test [2] were 1.4 µM and 6.1 µM, respectively.

On to `CCCCCCCCCCCCCCC(N)CN(CC)CC` (stereo not given) [N*1*,N*1*-Diethyl-hexadecane-1,2-diamine], for which the results for the IC50 in test [1], in test [2] and in test [3] were 3.6 µM, 11 µM and 9.5 µM, respectively.

(Values after BindingDB's records for doi:10.1016/s0960-894x(99)00680-0 (Univ. De Valencia, 2000).)
